Legend:
[1] = system: arachidonic acid (AA) cascade; test: plasma oxylipin/PG levels in LPS induced sepsis in mice; assay type: in vivo, C57BL/6N mice; details: plasma 24 h after LPS treatment; LPS +; mean;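 further: male C57BL/6N mice given LPS, plasma oxylipins quantified by LC-MS after solid-phase extraction, pretreatment or vehicle given intraperitoneally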
ovine recombinant COX–1 = molecular target: T1, ovine recombinant COX–1 (Ovis aries, UniProt P05979); test: cell-free COX–1 enzyme assay (PGE2 formation, LC-MS); assay type: biochemical; set-up: purchased Cayman Chemicals/ Biomol, Hamburg, Germany
T1 sequence (P05979 25-600): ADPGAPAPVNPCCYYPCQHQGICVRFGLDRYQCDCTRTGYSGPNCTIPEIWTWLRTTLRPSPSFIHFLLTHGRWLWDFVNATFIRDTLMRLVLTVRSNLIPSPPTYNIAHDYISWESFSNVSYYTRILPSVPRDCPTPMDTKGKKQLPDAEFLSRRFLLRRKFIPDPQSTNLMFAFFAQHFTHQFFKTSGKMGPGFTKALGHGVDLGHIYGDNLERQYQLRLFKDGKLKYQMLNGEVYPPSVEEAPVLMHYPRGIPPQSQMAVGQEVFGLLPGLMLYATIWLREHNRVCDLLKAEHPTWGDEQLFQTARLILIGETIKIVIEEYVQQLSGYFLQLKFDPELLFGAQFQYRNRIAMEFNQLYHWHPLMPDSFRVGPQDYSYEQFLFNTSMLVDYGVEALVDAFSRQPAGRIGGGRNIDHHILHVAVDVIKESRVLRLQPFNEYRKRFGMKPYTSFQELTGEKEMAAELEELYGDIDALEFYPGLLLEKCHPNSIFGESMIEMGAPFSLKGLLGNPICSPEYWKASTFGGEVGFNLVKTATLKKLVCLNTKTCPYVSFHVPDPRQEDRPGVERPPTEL

## O=c1c(-c2ccc(O)cc2)coc2cc(O)cc(O)c12 [Genistein, genistein]
[1]
  1a,1b-dihomo-PGF2α concentration in plasma: 0.33 nM
  4,5-DiHDPE concentration in plasma: 10 nM
  4-HDHA concentration in plasma: 2.0 nM
  5(6)-EpETrE concentration in plasma: 8.9 nM
  5,6-DiHETrE concentration in plasma: 0.72 nM
  5-HEPE concentration in plasma: 0.33 nM
  5-HETE concentration in plasma: 3.1 nM
  5-iPF2α concentration in plasma: < 0.50 nM
  5-oxo-ETE concentration in plasma: 1.2 nM
  6-keto-PGF1α concentration in plasma: 2.4 nM
  7,8-DiHDPE concentration in plasma: 1.1 nM
  7-HDHA concentration in plasma: 0.64 nM
  8(9)-EpETrE concentration in plasma: 2.3 nM
  8,9-DiHETrE concentration in plasma: 2.1 nM
  8-HDHA concentration in plasma: 4.0 nM
  8-HEPE concentration in plasma: 0.72 nM
  8-HETE concentration in plasma: 9.6 nM
  8-iPF2a concentration in plasma: 0.24 nM
  9(10)-EpODE concentration in plasma: 3.5 nM
  9(10)-EpOME concentration in plasma: 37 nM
  9(10)-Epoxystearic acid concentration in plasma: 31 nM
  9,10,13-TriHOME concentration in plasma: 1.5 nM
  9,10-DiHODE concentration in plasma: 4.8 nM
  9,10-DiHOME concentration in plasma: 63 nM
  9,10-Dihydroxystearic acid concentration in plasma: 15 nM
  9,12,13-TriHOME concentration in plasma: 9.6 nM
  9-HODE concentration in plasma: 96 nM
  9-HOTrE concentration in plasma: 4.1 nM
  9-oxo-ODE concentration in plasma: 16 nM
  10(11)-EpDPE concentration in plasma: 3.0 nM
  10,11-DiHDPE concentration in plasma: 0.90 nM
  10-HDHA concentration in plasma: 16 nM
  11(12)-EpETrE concentration in plasma: 2.7 nM
  11,12-DiHETE concentration in plasma: 0.19 nM
  11,12-DiHETrE concentration in plasma: 1.9 nM
  11-HDHA concentration in plasma: 1.2 nM
  11-HETE concentration in plasma: 2.7 nM
  12(13)-EpODE concentration in plasma: 1.8 nM
  12(13)-EpOME concentration in plasma: 34 nM
  12,13-DiHODE concentration in plasma: 4.7 nM
  12,13-DiHOME concentration in plasma: 214 nM
  12-HEPE concentration in plasma: 140 nM
  12-HETE concentration in plasma: 1200 nM
  13(14)-EpDPE concentration in plasma: 2.0 nM
  13,14-DiHDPE concentration in plasma: 0.96 nM
  13,14-dihydro-15-keto-PGE1 concentration in plasma: 0.18 nM
  13,14dihydro-15-keto-PGF2α concentration in plasma: 0.43 nM
  13-HDHA concentration in plasma: 2.8 nM
  13-HODE concentration in plasma: 240 nM
  13-HOTrE concentration in plasma: 15 nM
  13-oxo-ODE concentration in plasma: 2.7 nM
  14(15)-EpETE concentration in plasma: 0.21 nM
  14(15)-EpETrE concentration in plasma: 2.0 nM
  14,15-DiHETE concentration in plasma: 0.41 nM
  14,15-DiHETrE concentration in plasma: 4.3 nM
  14-HDHA concentration in plasma: 450 nM
  15(16)-EpODE concentration in plasma: 2.0 nM
  15(S)-HETrE concentration in plasma: 2.7 nM
  15,16-DiHODE concentration in plasma: 40 nM
  15-HEPE concentration in plasma: 0.96 nM
  15-HETE concentration in plasma: 5.1 nM
  15-oxo-ETE concentration in plasma: 0.42 nM
  16(17)-EpDPE concentration in plasma: 2.1 nM
  16,17-DiHDPE concentration in plasma: 2.2 nM
  16-HDHA concentration in plasma: 1.9 nM
  17(18)-EpETE concentration in plasma: 1.2 nM
  17,18-DiHETE concentration in plasma: 2.3 nM
  17-HDHA concentration in plasma: 21 nM
  18-HEPE concentration in plasma: 0.45 nM
  19(20)-EpDPE concentration in plasma: 14 nM
  19,20-DiHDPE concentration in plasma: 19 nM
  20-HDHA concentration in plasma: 3.7 nM
  20-HEPE concentration in plasma: 2.8 nM
  20-HETE concentration in plasma: 1.7 nM
  EKODE concentration in plasma: 9.9 nM
  PGD2 concentration in plasma: < 0.50 nM
  PGE2 concentration in plasma: 0.95 nM
  PGF1α concentration in plasma: 0.13 nM
  PGF2α concentration in plasma: 0.44 nM
  TXB2 concentration in plasma: 2.6 nM
Ovine recombinant COX–1
  effect on COX–1 dependent PGE2 formation, cell-free enzyme assay: no effect
Ovine recombinant COX–1; calculated based on PGE2, n = 3
  IC50 (95% CI), COX–1 enzyme assay: no effect (up to 30 μM)
